The values that follow come from US9687467B2, “Diagnosis and treatment of taxane-resistant cancers” (Children's Medical Center Corporation, priority 2011, dated 2017).

Each structure is given as a SMILES string.

The assay concerns A549 cells. As to the kind of experiment: cells. To be noted: Homo sapiens, A549, read-out: median LC50. In kind it is cell-based. As for the experimental part:
The paclitaxel-resistant cell lines MES-SA^DX5 and A549^TR were transfected with a scrambled non-targeting miRNA (control) and an miR-135a mimic (mimic), respectively. Cells were subsequently treated with 100 nM paclitaxel and cell viability was assessed using the MTT assay (FIGS. 2A, 2B). The percentage of apoptotic cells was assessed by Annexin V-staining and FACS analysis (FIGS. 2C, 2D). Values are presented as percent cell survival in paclitaxel-treated cells relative to untreated cells. *P<0.05, **P<0.001 as determined by Wilcoxon's rank sum test.
FIGS. 4A-4E are a series of micrographs and line graphs showing that miR-135a-mediated APC suppression contributes to paclitaxel resistance. […] Transfected A549 (FIG. 4B) and MES-SA (FIG. 4C) cells were treated with paclitaxel and viability was assessed using the MTT assay. […] (FIG. 4E) Both A549-shCON and -shAPC cells were treated with paclitaxel and cell viability was measured using the MTT assay. […]
(FIG. 7A). The parental A549 cells, a cell line that became refractory during in vivo treatment with paclitaxel (T20.2 round 1) and the same cell line established after yet another round of in vivo paclitaxel treatment (T20.2 reinjection) were treated with paclitaxel and cell viability was assessed using the MTT assay. […] (FIG. 7B) The expression of miR-135a was examined in these cells by qRT-PCR. *P<0.05 as determined by Wilcoxon's rank sum test. […]

Regarding `CC(=O)O[C@H]1C(=O)[C@@]2(C)[C@H]([C@H](OC(=O)c3ccccc3)[C@]3(O)C[C@H](OC(=O)[C@H](O)[C@@H](NC(=O)c4ccccc4)c4ccccc4)C(C)=C1C3(C)C)[C@]1(OC(C)=O)CO[C@@H]1C[C@@H]2O` [paclitaxel], the CC50 was found to be 1.14 nM.
